Patent US11739070B2, “C5A receptor modulators” (IDORSIA PHARMACEUTICALS LTD, priority 2018, dated 2023)

Biological target: T1, C5AR1 (Homo sapiens, UniProt P21730)
T1 construct: host or cells: CHO-K1
T1 sequence (P21730 1-350): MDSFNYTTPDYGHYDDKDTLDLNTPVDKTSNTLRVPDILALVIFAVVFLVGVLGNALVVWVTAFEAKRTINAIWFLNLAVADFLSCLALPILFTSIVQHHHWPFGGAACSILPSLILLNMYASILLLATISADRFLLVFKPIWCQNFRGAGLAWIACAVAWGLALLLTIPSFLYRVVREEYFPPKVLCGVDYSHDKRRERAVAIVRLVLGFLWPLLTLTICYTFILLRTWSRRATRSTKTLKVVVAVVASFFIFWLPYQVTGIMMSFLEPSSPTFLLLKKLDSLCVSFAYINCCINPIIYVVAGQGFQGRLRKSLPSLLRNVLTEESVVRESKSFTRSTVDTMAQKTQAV
Assay: hC5a DISCO IC50 assay (PathHunter beta-arrestin, antagonist mode)
Assay type: cell-based
Settings: CHO-K1 C5AR1 beta-arrestin cell line; antagonist vs 1-10 nM C5a agonist; geometric mean values; read-out: C5aR IC50
Protocol: II. Biological Assays In Vitro Assay hC5a DISCO IC50 Assay
5 μl Antagonist at 6-fold end concentration or DMSO control is added to assay medium and subsequently 5 μl 1-10 nM C5a agonist at 6 fold end concentration. Cells are centrifuged for 1 min at 1000 rpm and incubated for 1.5 hour in at 37° C. Plates are equilibrated at room temperature for several minutes before adding 12 μl/well Detection Reagent (PathHunter Detection Kit, DiscoverX, Cat #93-0001). Plates are centrifuged for 1 min at 1000 rpm and incubated for 45 minutes at RT before being measured on a Fluostar Optima, BMG Labtech. IC50 values are calculated from a serial dilution range of antagonist using inhouse software and given in nmol/l.
The calculated IC50 values may fluctuate depending on the daily cellular assay performance. Fluctuations of this kind are known to those skilled in the art. Average IC50 values from several measurements are given as geometric mean values.

IC50 [nM]	Structure (SMILES)
13	COc1cccc2c1n(Cc1nccnc1C(C)C)c(=O)n2[C@@H]1CCN(c2c(C)cccc2F)C1 [Example 189, 1-[(R)-1-(2-Fluoro-6-methyl-phenyl)-pyrrolidin-3-yl]-3-(3-isopropyl-pyrazin-2-ylmethyl)-4-methoxy-1,3-dihydro-benzoimidazol-2-one]
108	COc1cccc2c1n(Cc1ccccc1C(F)(F)F)c(=O)n2[C@@H]1CCN(c2c(F)cccc2CN2CC(OC)C2)C1 [Example 143, 1-{(R)-1-[2-Fluoro-6-(3-methoxy-azetidin-1-ylmethyl)-phenyl]-pyrrolidin-3-yl}-4-methoxy-3-(2-trifluoromethyl-benzyl)-1,3-dihydro-benzoimidazol-2-one]
268	COc1cncc2c1n(Cc1ccccc1C(F)(F)F)c(=O)n2C1CCN(c2c(C)cccc2F)CC1 [Example 229, 3-[1-(2-Fluoro-6-methyl-phenyl)-piperidin-4-yl]-7-methoxy-1-(2-trifluoromethyl-benzyl)-1,3-dihydro-imidazo[4,5-c]pyridin-2-one]
2430	COc1ccccc1Cn1c(=O)n([C@@H]2CCN(c3c(C)cccc3F)C2)c2cc[nH]c(=O)c21 [Example 81, 1-[(R)-1-(2-Fluoro-6-methyl-phenyl)-pyrrolidin-3-yl]-3-(2-methoxy-benzyl)-3,5-dihydro-1H-imidazo[4,5-c]pyridine-2,4-dione]
30	COCCOc1ccccc1N1CC[C@@H](n2c(=O)n(Cc3ccccc3C(F)(F)F)c3c(OC)cccc32)C1 [Example 204, 4-Methoxy-1-{(R)-1-[2-(2-methoxy-ethoxy)-phenyl]-pyrrolidin-3-yl}-3-(2-trifluoromethyl-benzyl)-1,3-dihydro-benzoimidazol-2-one]
2020	COc1cc(Cl)nnc1Cn1c(=O)n([C@@H]2CCN(c3c(C)cccc3F)C2)c2cccc(OC)c21 [Example 92, 3-(6-Chloro-4-methoxy-pyridazin-3-ylmethyl)-1-[(R)-1-(2-fluoro-6-methyl-phenyl)-pyrrolidin-3-yl]-4-methoxy-1,3-dihydro-benzoimidazol-2-one]
107	COc1cccc2c1n(Cc1nnccc1OC(C)C)c(=O)n2[C@@H]1CCN(c2c(C)cccc2F)C1 [Example 173, 1-[(R)-1-(2-Fluoro-6-methyl-phenyl)-pyrrolidin-3-yl]-3-(4-isopropoxy-pyridazin-3-ylmethyl)-4-methoxy-1,3-dihydro-benzoimidazol-2-one]
6	Cc1cccc(F)c1N1CC[C@@H](n2c(=O)n(Cc3ccccc3C(F)(F)F)c3c(O)cccc32)C1 [Example 40, 1-[(R)-1-(2-Fluoro-6-methyl-phenyl)-pyrrolidin-3-yl]-4-hydroxy-3-(2-trifluoromethyl-benzyl)-1,3-dihydro-benzoimidazol-2-one]
35	COc1cccc2c1n(Cc1ccccc1C(F)(F)F)c(=O)n2[C@@H]1CCN(c2ccccc2F)C1 [Example 160, 1-[(R)-1-(2-Fluoro-phenyl)-pyrrolidin-3-yl]-4-methoxy-3-(2-trifluoromethyl-benzyl)-1,3-dihydro-benzoimidazol-2-one]
2650	COc1cccc2c1n(Cc1ccccc1C(F)(F)F)c(=O)n2C1CCN(C(=O)C2CC2)CC1 [Example 222, 1-(1-Cyclopropanecarbonyl-piperidin-4-yl)-4-methoxy-3-(2-trifluoromethyl-benzyl)-1,3-dihydro-benzoimidazol-2-one]
346	COc1cccc2c1n(Cc1csc(C(F)(F)F)n1)c(=O)n2[C@@H]1CCN(c2c(C)cccc2F)C1 [Example 218, 1-[(R)-1-(2-Fluoro-6-methyl-phenyl)-pyrrolidin-3-yl]-4-methoxy-3-(2-trifluoromethyl-thiazol-4-ylmethyl)-1,3-dihydro-benzoimidazol-2-one]
70	COc1cccc2c1n(Cc1ccccc1C(F)(F)F)c(=O)n2[C@@H]1CCN(c2c(F)cccc2C(C)(C)O)C1 [Example 91, 1-{(R)-1-[2-Fluoro-6-(1-hydroxy-1-methyl-ethyl)-phenyl]-pyrrolidin-3-yl}-4-methoxy-3-(2-trifluoromethyl-benzyl)-1,3-dihydro-benzoimidazol-2-one]
630	COc1cccc2c1n(Cc1ccccc1C(F)(F)F)c(=O)n2[C@@H]1CCN(c2nncc(Cl)c2Cl)C1 [Example 157, 1-[(R)-1-(4,5-Dichloro-pyridazin-3-yl)-pyrrolidin-3-yl]-4-methoxy-3-(2-trifluoromethyl-benzyl)-1,3-dihydro-benzoimidazol-2-one]
165	COc1cccc2c1n(Cc1ccccc1C(F)(F)F)c(=O)n2[C@@H]1CCN(c2c(F)cccc2CN2CCCC2)C1 [Example 116, 1-[(R)-1-(2-Fluoro-6-pyrrolidin-1-ylmethyl-phenyl)-pyrrolidin-3-yl]-4-methoxy-3-(2-trifluoromethyl-benzyl)-1,3-dihydro-benzoimidazol-2-one]
275	COc1cccc2c1n(Cc1nnc(Cl)cc1OC(C)C)c(=O)n2[C@@H]1CCN(c2c(C)cccc2F)C1 [Example 172, 3-(6-Chloro-4-isopropoxy-pyridazin-3-ylmethyl)-1-[(R)-1-(2-fluoro-6-methyl-phenyl)-pyrrolidin-3-yl]-4-methoxy-1,3-dihydro-benzoimidazol-2-one]
717	COc1cccc(F)c1N1CC[C@@H](n2c(=O)n(Cc3ccccc3C(F)(F)F)c3c(=O)[nH]ccc32)C1 [Example 56, 1-[(R)-1-(2-Fluoro-6-methoxy-phenyl)-pyrrolidin-3-yl]-3-(2-trifluoromethyl-benzyl)-3,5-dihydro-1H-imidazo[4,5-c]pyridine-2,4-dione]
1330	COc1cccc2c1n(Cc1ccncc1C(F)(F)F)c(=O)n2C1CCN(c2c(F)cccc2F)CC1 [Example 74, 1-[1-(2,6-Difluoro-phenyl)-piperidin-4-yl]-4-methoxy-3-(3-trifluoromethyl-pyridin-4-ylmethyl)-1,3-dihydro-benzoimidazol-2-one]
90	COc1cccc2c1n(Cc1ccccc1C(F)(F)F)c(=O)n2C1CCN(c2c(C)ccnc2C)CC1 [Example 237, 1-(2′,4′-Dimethyl-3,4,5,6-tetrahydro-2H-[1,3′]bipyridinyl-4-yl)-4-methoxy-3-(2-trifluoromethyl-benzyl)-1,3-dihydro-benzoimidazol-2-one]
2820	COc1cccc2c1n(Cc1ccccc1C(F)(F)F)c(=O)n2[C@@H]1CCN(c2nnc(C(C)C)o2)C1 [Example 69, 1-[(R)-1-(5-Isopropyl-[1,3,4]oxadiazol-2-yl)-pyrrolidin-3-yl]-4-methoxy-3-(2-trifluoromethyl-benzyl)-1,3-dihydro-benzoimidazol-2-one]
24	COc1cccc2c1n(Cc1nccnc1OC(C)C)c(=O)n2[C@@H]1CCN(c2c(C)cccc2F)C1 [Example 177, 1-[(R)-1-(2-Fluoro-6-methyl-phenyl)-pyrrolidin-3-yl]-3-(3-isopropoxy-pyrazin-2-ylmethyl)-4-methoxy-1,3-dihydro-benzoimidazol-2-one]
27	COc1cccc2c1n(Cc1ccccc1C(F)(F)F)c(=O)n2C1CCN(c2c(C)cccc2F)CC1F (centres unmarked) [Example 211, 1-[3-Fluoro-1-(2-fluoro-6-methyl-phenyl)-piperidin-4-yl]-4-methoxy-3-(2-trifluoromethyl-benzyl)-1,3-dihydro-benzoimidazol-2-one]
84	CCOC(=O)N1CC[C@@H](n2c(=O)n(Cc3ccccc3C(F)(F)F)c3c(OC)cccc32)C1 [Example 60, (R)-3-[4-Methoxy-2-oxo-3-(2-trifluoromethyl-benzyl)-2,3-dihydro-benzoimidazol-1-yl]-pyrrolidine-1-carboxylic acid ethyl ester]
207	Cc1cccc(F)c1N1CC[C@@H](n2c(=O)n(Cc3ccccc3C(F)(F)F)c3c(OCC(O)CO)nccc32)C1 (stereo partly drawn) [Example 128, 4-(2,3-Dihydroxy-propoxy)-1-[(R)-1-(2-fluoro-6-methyl-phenyl)-pyrrolidin-3-yl]-3-(2-trifluoromethyl-benzyl)-1,3-dihydro-imidazo[4,5-c]pyridin-2-one]
31	Cc1cccc(F)c1N1CC[C@@H](n2c(=O)n(Cc3ccccc3C(F)(F)F)c3c(OCC4COC(C)(C)O4)cccc32)C1 (stereo partly drawn) [Example 151, 4-(2,2-Dimethyl-[1,3]dioxolan-4-ylmethoxy)-1-[(R)-1-(2-fluoro-6-methyl-phenyl)-pyrrolidin-3-yl]-3-(2-trifluoromethyl-benzyl)-1,3-dihydro-benzoimidazol-2-one]
5220	Cc1cccc(F)c1N1CC[C@@H](n2c(=O)n(Cc3ccccc3C(F)(F)F)c3c(OC4CCNCC4)nccc32)C1 [Example 124, 1-[(R)-1-(2-Fluoro-6-methyl-phenyl)-pyrrolidin-3-yl]-4-(piperidin-4-yloxy)-3-(2-trifluoromethyl-benzyl)-1,3-dihydro-imidazo[4,5-c]pyridin-2-one]

Structure (SMILES)	IC50 [nM]
CCCCOc1ccccc1N1CCC(n2c(=O)n(Cc3ccccc3C(F)(F)F)c3c(OC)cccc32)CC1 [Example 243, 1-[1-(2-Butoxy-phenyl)-piperidin-4-yl]-4-methoxy-3-(2-trifluoromethyl-benzyl)-1,3-dihydro-benzoimidazol-2-one]	61
